Here are results for nine molecules from patent publication US6395780B1, “Cleavage system inhibitors as potential antipsychotics” (Merck Patent GmbH, priority 1999, dated 2002).

In data set [1] the target is T1, Glycine Cleavage System (GCS) (Homo sapiens, UniProt P09622+P23378+P23434+P48728). The following applies: liver mitochondria; read-out: Ki for GCS inhibition; cited from earlier work.
Data set [2] deals with T1, Glycine Cleavage System (GCS). The following applies: brain mitochondria; read-out: Ki for GCS inhibition; cited from earlier work.
The subject of data set [3] is apomorphine-induced climbing behavior. The experiment in a line: apomorphine-induced climbing test in mice. The data set is classed as in vivo. The note with it: for inhibition of apomorphine-induced climbing behavior: apomorphine 1.25 mg/kg subcutaneously. From the text:
Although the complex interaction of glycine with the neurotransmitter dopamine is not yet fully understood, the counterbalancing effects (symmetric bilateral changes) of glycine and dopamine, at least in part via GABAergic and cholinergic interneurons, in the central nervous system are well known for long ([…] et al., 1978; Giorguieff et al., 1979; […] et al., 1979; Schmidt and […] et al., 1998). Dopamine antagonists are the classic antischizophrenic drugs, and conventional animal models to test for antischizophrenic drugs with a dopaminergic mechanism of action use the induction of stereotyped behaviours such as climbing behavior in mice by the application of dopamine-agonistic drugs such as apomorphine (Protais et al., 1976; Puech et al., 1978). […] Therefore the model compound cysteamine at the doses indicated before are investigated in the climbing test in mice, too.

In data set [4] the test system is hyperlocomotion induced by PCP or related drugs. The following applies: PCP or related drugs as challenge stimulants, rodents; cited from earlier work.
The target in data set [5] is T1, Glycine Cleavage System (GCS). The following applies: Benavides 1983; cited from earlier work.
Data set [6] deals with negative symptoms in schizophrenic patients. The note with it: cited from earlier work.
The subject of data set [7] is PCP-induced hyperlocomotion. The data set is described as follows: PCP-induced hyperlocomotion model. The format is in vivo. The protocol: For the PCP-induced hyperlocomotion model we use a test apparatus consisting of a clear plexiglass box (45 cm×45 cm) equipped with two series of equally spaced infrared beam lights controlling X-Y axes and connected to a microcomputer. Measured automatically are the distance (way) traveled [m], and the time spent with locomotion or resting [sec] in intervals of 30 min over a total of 90 minutes following PCP administration. […] PCP at the indicated dose induces excessive locomotor behavior with an increase of about 200-250% measured by either locomotion distance or time compared to control animals.

For data set [8], the system named is PCP-induced disruption of PPI. The data set is described as follows: PCP-induced disruption of prepulse inhibition (PPI). The data set is classed as in vivo, rats. From the text: For the PCP-induced disruption of PPI we use a commercially available standard equipment (Coulbourn Instruments, USA) consisting of a sound attenuated test box equipped with a startle response measuring unit connected to a microcomputer; a white noise generator applies a constant level of back ground noise during the experiment. After a habituation period, a series of 70 combinations of prepulses (no prepulse or […] above back ground noise) and pulses (90 to 126 dB) is randomly applied to the rats. […] In control animals, presentation of the prepulse inhibits the startle response elicited by the pulse alone. PCP at the indicated doses induces a disruption of PPI by a maximum of about 70% compared to control animals. The doses indicated above are used for valproate and cysteamine, administered before the PCP challenge.

The subject of another data set is negative symptoms. The following applies: cited from earlier work.
The test system of a further data set is glycine levels. The note with it: i.p. 250 mg/kg in 8 day old rats (Iwama 1997); cited from earlier work.

“Also recorded” adds a separate entry of the source. Like-named read-outs stand apart in the source and are kept apart here.

T1 sequence (P23378 36-1020): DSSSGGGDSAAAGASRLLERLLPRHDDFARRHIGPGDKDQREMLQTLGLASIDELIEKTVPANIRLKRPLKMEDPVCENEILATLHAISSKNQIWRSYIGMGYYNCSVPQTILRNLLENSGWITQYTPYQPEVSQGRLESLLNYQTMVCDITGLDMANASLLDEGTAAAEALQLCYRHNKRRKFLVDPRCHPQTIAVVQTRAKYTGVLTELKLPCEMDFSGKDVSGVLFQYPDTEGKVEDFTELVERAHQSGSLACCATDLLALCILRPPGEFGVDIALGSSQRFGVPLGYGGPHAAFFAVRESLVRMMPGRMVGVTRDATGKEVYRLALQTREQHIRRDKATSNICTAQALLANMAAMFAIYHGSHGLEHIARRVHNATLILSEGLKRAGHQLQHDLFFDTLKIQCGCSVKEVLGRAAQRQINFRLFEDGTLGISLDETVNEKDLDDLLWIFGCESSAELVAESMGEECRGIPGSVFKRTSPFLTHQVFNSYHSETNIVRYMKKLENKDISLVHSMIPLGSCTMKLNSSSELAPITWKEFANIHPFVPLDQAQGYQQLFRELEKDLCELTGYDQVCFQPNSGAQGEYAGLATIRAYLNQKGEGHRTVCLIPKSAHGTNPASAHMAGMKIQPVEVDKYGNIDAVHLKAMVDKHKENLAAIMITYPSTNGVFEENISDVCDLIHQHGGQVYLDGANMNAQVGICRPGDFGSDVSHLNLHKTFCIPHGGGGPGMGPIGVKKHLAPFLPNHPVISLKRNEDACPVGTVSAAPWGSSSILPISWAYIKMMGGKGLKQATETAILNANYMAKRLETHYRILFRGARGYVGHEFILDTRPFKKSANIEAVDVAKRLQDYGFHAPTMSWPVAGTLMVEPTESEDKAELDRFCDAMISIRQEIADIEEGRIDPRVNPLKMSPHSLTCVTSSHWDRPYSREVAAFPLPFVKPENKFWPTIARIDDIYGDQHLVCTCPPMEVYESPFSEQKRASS
T1 sequence (P48728 29-403): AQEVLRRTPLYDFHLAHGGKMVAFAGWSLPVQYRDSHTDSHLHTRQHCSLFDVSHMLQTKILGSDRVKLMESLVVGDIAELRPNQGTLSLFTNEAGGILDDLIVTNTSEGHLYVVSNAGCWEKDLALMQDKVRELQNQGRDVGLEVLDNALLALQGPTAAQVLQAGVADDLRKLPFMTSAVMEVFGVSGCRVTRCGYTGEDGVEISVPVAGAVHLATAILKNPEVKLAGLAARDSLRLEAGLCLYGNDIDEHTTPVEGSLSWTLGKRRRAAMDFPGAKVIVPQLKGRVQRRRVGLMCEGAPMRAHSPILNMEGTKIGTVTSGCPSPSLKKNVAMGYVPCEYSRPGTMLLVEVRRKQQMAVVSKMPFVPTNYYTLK
T1 sequence (P23434 49-173): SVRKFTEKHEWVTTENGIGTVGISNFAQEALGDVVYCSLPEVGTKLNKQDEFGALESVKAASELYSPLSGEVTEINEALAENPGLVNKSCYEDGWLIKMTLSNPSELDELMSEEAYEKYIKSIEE
T1 sequence (P09622 36-509): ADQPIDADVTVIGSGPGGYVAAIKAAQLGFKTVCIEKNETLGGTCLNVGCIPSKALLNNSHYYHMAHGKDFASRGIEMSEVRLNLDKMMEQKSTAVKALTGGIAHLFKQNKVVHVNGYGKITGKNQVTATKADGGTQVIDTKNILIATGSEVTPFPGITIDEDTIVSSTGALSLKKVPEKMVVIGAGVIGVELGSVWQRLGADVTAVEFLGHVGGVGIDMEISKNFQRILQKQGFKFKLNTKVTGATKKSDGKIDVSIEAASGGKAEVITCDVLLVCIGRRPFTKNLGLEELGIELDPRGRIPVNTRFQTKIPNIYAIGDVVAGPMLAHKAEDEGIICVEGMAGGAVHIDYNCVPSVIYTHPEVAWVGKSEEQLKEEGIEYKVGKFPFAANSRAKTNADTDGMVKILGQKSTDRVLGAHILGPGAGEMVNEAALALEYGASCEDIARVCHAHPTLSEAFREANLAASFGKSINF

Take `CCCC(CCC)C(=O)O` [Valproate]: the inhibitory constant (Ki) (as a rule, the dissociation constant of the complex between target and ligand, obtained from inhibition or displacement) in data set [1] is 590 µM; in [2] it was 2000 µM.
In the case of `CCCCCCCCCCCCNC(=O)CN` [GDA, glycyldodecylamide], the “inhibition of apomorphine-induced climbing behavior” value in data set [3] is “inhibited”. Also, the “efficacy in the hyperlocomotion model” value in data set [4] was “repeatedly demonstrated”.
On to `N#CCN` [aminoacetonitrile], for which the “GCS inhibition (in words)” value in data set [5] is recorded as “weak inhibitors”.
For the molecule `N[C@@H]1CONC1=O` [D-cycloserine], in [3], the “inhibition of apomorphine-induced climbing behavior” value is on record as “inhibited”. Further, the negative symptoms entry in data set [6] (50 mg/d along with effective dose of antipsychotics, double blind, placebo-controlled (Goff 1999)) is reported as “improvement in negative symptoms”. In addition, the “negative symptoms in schizophrenic patients” value in [6] (50 mg/d, trial assessing 15 to 250 mg/d (Goff 1995)) is “reduced negative symptoms”. The “efficacy in the hyperlocomotion model” value in data set [4] is recorded as “repeatedly demonstrated”.
In the case of `c1ccc(C2(N3CCCCC3)CCCCC2)cc1` [PCP, phencyclidine], in data set [7] (PCP 5 mg/kg intraperitoneally), the “increase of locomotor behavior (distance or time) compared to control animals” value is reported as 200-250%. The “disruption of PPI compared to control animals (maximum)” value in [8] (PCP 1-5 mg/kg subcutaneously) is “about 70%”.
As for `NCC(=O)O` [glycine], the side effects entry with negative symptoms (0.4 g/kg and 0.8 g/kg glycine orally along with usual antipsychotic medication) is “No changes”. Besides, the “amelioration of negative symptoms” value in the data set on negative symptoms (0.4 g/kg glycine orally along with usual antipsychotic medication) is 15%; in the data set with negative symptoms (0.8 g/kg glycine orally along with usual antipsychotic medication), 30%. The “efficacy in the hyperlocomotion model” value in data set [4] is given as “repeatedly demonstrated”.
Take `N[C@@H]1CCN(O)C1=O` [R-(+)-HA-966, R-(+)-3-amino-1-hydroxypyrrolid-2-one]: the “efficacy in the hyperlocomotion model” value in [4] was “repeatedly demonstrated”.
As for `C#CCN` [propargylamine], the “GCS inhibition (in words)” value in data set [5] is listed as “weak inhibitors”.
`NCCS` [Cysteamine]: the “effect on PCP-induced hyperlocomotion” value in [7] (100 to 500 mg/kg parenterally before PCP 5 mg/kg i.p., distance traveled and locomotion time over 90 min) is “reduction of PCP-induced hyperlocomotion; also recorded: reduce PCP-induced hyperlocomotion”. Further, the “effect on PCP-induced disruption of PPI” value in data set [8] (100 to 500 mg/kg parenterally before PCP 1-5 mg/kg s.c., different prepulse/pulse combinations) is recorded as “reverse PCP-induced disruption of PPI”. In [3] (Mus musculus, given prior to the apomorphine challenge, read-out: ED50 (dose which inhibits apomorphine-induced climbing by 50%)), the ED50 (usually the dose at which the effect has come halfway, by size or by number of responders) worked out at 500 mg/kg. For the same molecule, the “glycine in the cortex, % of control animals” value in the data set with glycine levels was 360%.
